# Assay results taken from paper PMC10177380 (Cancers, 2023).
# Read-outs that look alike come from different tables or passages of the source.
# How the values were obtained:
# COX-2 (human) = target: T1, COX-2 (human) (Homo sapiens, UniProt P35354); test: COX-2 (human) Inhibitor Screening Assay Kit (ELISA); type: biochemical; design: concentration or dose not given beside the values
# T1 construct: purchased Cayman Chemical Item No. 701080
# T1 sequence (P35354 18-604): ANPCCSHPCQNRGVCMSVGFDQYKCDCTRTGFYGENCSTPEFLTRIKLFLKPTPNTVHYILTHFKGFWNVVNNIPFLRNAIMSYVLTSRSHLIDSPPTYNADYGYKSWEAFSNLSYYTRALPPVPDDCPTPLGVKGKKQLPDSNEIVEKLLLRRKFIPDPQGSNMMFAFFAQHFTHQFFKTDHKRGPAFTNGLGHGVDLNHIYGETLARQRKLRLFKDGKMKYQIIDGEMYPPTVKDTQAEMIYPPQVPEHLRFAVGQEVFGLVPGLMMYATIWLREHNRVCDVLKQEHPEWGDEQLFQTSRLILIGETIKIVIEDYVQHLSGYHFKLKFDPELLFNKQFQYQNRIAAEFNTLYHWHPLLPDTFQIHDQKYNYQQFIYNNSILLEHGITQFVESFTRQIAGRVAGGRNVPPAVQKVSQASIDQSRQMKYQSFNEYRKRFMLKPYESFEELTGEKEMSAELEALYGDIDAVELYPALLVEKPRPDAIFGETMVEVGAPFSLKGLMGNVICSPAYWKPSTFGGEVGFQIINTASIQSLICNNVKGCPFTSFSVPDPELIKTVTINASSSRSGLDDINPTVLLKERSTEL
# Text: NSAIDs are well recognised as inhibitors of the COX enzymes, COX-1 and COX-2 [37, 42, 45]. […] COX-1 is typically expressed in most tissues and is associated with normal physiological functions, particularly by maintaining prostaglandin production at basal levels. In contrast, COX-2 is involved in the excessive production of prostaglandin during inflammation (or hypoxia), and extensive studies have shown that COX-2 resultant prostaglandins are overexpressed in tumours. […] To explore the COX-2 inhibitory properties of the studied complexes (1–6), ELISA was used against the COX-2 enzyme. […]
# 6. Cyclooxygenase-2 (COX-2) Inhibition
# The standards, samples and assay preparation, and completion were achieved as instructed by the manufacturer. The assay necessitated three steps, being the standards preparation, the COX reaction, and the enzyme immunoassay. The standards were prepared in 2-fold serial dilution of the prostaglandin F2α enzyme-linked immunosorbent assay (ELISA) standard starting at 500 pg/mL to 3.9 pg/mL in ELISA buffer (1X). The COX reaction dilution preparation for the background samples included the addition of background COX-2 (20 μL), which was inactivated in boiling water for 3 min. The background values were generated by adding 10 μL of the inactivated COX-2, 160 μL of the reaction buffer (1X), 10 μL of heme and 10 μL of DMSO (inhibitor vehicle). The COX reaction dilution preparation for the COX-2 100% initial activity samples included the addition 160 μL of the reaction buffer (1X), 10 μL of heme, 10 μL of COX-2 and 10 μL of DMSO (inhibitor vehicle). The COX reaction dilution preparation for the COX-2 inhibitor samples included the addition of 160 μL of the reaction buffer (1X), 10 μL of heme, 10 μL […]
# The reaction was then initiated by the addition of 10 μL of arachidonic acid and potassium hydroxide solution (1:1), and […]
# enzyme catalysis. The tubes were then vortexed and incubated for 5 min at room […]
# temperature. The background samples were diluted with ELISA buffer (1X) 1:100 times […]
# and the COX-2 100% initial activity and COX-2 inhibitor samples were diluted 1:2000 and […]
# 1:4000 times. For the enzyme immunoassay, 100 μL of the ELISA buffer (1X) was added […]
# to non-specific binding wells (NSBs), 50 μL of the ELISA buffer (1X) was added to […]
# maximum binding wells (B0) and 50 μL of each prostaglandin F2α standard was added to […]
# standard wells in duplicates. 50 μL of background sample and 50 μL of COX-2 100% […]
# initial activity samples were independently added to the wells in duplicates. Inhibitor […]
# samples (50 μL) being investigated were added to the wells in triplicates. Prostaglandin […]
# F2α acetyl-cholinesterase (AChE) tracer (50 μL) was added to all wells but the total […]
# activity well and blank wells. Prostaglandin F2α ELISA antiserum (50 μL) was added to […]
# each well but the total activity well, NSBs and blank wells. The plate was then covered […]
# with a plastic seal and incubated overnight at room temperature on an orbital shaker. The […]
# wells were then washed five times using kit wash buffer (1X). Ellman’s reagent (200 μL) […]
# was then added to each well, as well as 5 μL of the AChE tracer into the total activity […]
# well. The plate was then covered with the plastic seal, placed on an orbital shaker in the […]
# dark to develop for 2 hours at room temperature. […]
# nm using the SpectraMax M2 series multi-mode microplate reader (Molecular Devices, […]
# HT29 colon cells = test: Mitochondrial membrane potential, TMRE-MtMP assay; type: cell-based, human; details: treatment at GI50 concentration (FCCP positive control 20 μM)
# Text: To study the MtMP changes in treated cells, a TMRE-MtMP Assay Kit (Abcam, Cambridge, MA, USA) was used (see Supplementary Materials).
# TMRE was used to stain HT29 colon cells, and treatment with the complexes and ligands was completed at each specific GI50 concentration. The MtMP changes detected are expressed as RFU. Additionally, lower RFU values correspond to a decline in mitochondrial activity. […]
# dimethylthiazol-2-yl]-2,5-diphenyltetrazolium bromide) assay and absorbance was read at 540 nm. An eight-point dose response curve was produced from which the GI50 value was calculated, representing the drug concentration at which cell growth was inhibited by 50% based on the difference between the optical density values on day 0 and those at the end of drug exposure. […]
# 5. Mitochondrial Membrane Potential (MtMP)
# In 96-well plates, 25,000 cells/mL of HT29 colon cells in DMEM were seeded. Cells were treated with a GI50 drug concentration for each complex. […]
# washed with PBS and stained with 1 μM tetramethylrhodamine, ethyl ester (TMRE) and incubated for 30 min. TMRE was then removed, and cells were then re-washed with PBS (0.2% BSA), after which phenol red free media was added. The plates were directly scanned to measure fluorescence (expressed as RFU), using the Glo-Max®-Multimode […]
# microplate reader (Promega Corporation, Alexandra, VIC, Australia) at an […]
# For the positive control, 20 μM carbonyl cyanide 4-(trifluoromethoxy) phenylhydrazone (FCCP)) was added to the cells and incubated for 10 min. The cells were washed with PBS (0.2% BSA) and stained with TMRE (1 μM) for 30 min; this was removed and phenol red free media was added, and the final solution was scanned as mentioned above. […]
# MCF7 breast = test: MTT growth inhibition, 72 h, MCF7; type: cell-based; details: for GI50: MCF7, MTT, 72 h
# Du145 prostate = test: MTT growth inhibition, 72 h, Du145; type: cell-based; details: for GI50: Du145, MTT, 72 h
# SJG2 glioblastoma = test: MTT growth inhibition, 72 h, SJG2; type: cell-based
SMILES,Percentage COX-2 Inhibitory Activity (COX-2 (human)) [%],"MtMP Changes (HT29 colon cells; HT29, 24 h) [RFU]","MtMP Changes (HT29 colon cells; HT29, 48 h) [RFU]","MtMP Changes (HT29 colon cells; HT29, 72 h) [RFU]",GI50 (MCF7 breast) [nM],GI50 (Du145 prostate) [nM],GI50 (SJG2 glioblastoma) [nM],Percentage COX-2 Inhibitory Activity (COX-2 (human); 72 h) [%],GI50 (MCF7 breast; Homo sapiens) [nM],"GI50 (Du145 prostate; Homo sapiens, DU-145) [nM]",GI50 (SJG2 glioblastoma; SJ-G2) [nM],fold decrease of GI50 relative to the platinum(IV) scaffold (MCF7 breast) [fold],fold more potent than carboplatin (Du145 prostate),fold more potent than cisplatin (Du145 prostate),fold more potent than its platinum(II) precursor (Du145 prostate) [fold],fold more potent than oxaliplatin (Du145 prostate) [fold],fold more potent than its platinum(II) precursor (Du145 prostate; Du145) [fold]
"Cc1c(C)c2cccnc2c2ncccc12.N[C@H]1CCCC[C@@H]1N.[Pt] [Complex 56MESS, [Pt^II(5,6-Me2phen)(SS-DACH)]^2+]",5 ± 4,156 ± 10,162 ± 13,103 ± 7,,,,,,,,,,,,,
"COc1ccc2cc([C@H](C)C(=O)[O][Pt+2]3([OH])[N]4C=CC=c5ccc6c(c54)[N]3C=CC=6)ccc2c1.N[C@H]1CCCC[C@@H]1N [Complex 1, [Pt^IV(phen)(SS-DACH)(NPX)(OH)]^2+]",55 ± 3,382 ± 11,211 ± 12,163 ± 5,1120 ± 342,230 ± 17,1570 ± 67,,,,,,,,,,
Cc1cc2c3c4c1=CC=C[N]4[Pt+2][N]3C=CC=2.N[C@H]1CCCC[C@@H]1N [Complex 5MESS],6 ± 3,210 ± 15,204 ± 6,144 ± 5,,,,,,,,,,,,,
"COc1ccc2cc([C@H](C)C(=O)[O][Pt+2]3([OH])[N]4C=CC=c5cc(C)c6c(c54)[N]3C=CC=6)ccc2c1.N[C@H]1CCCC[C@@H]1N (stereo partly drawn) [Complex 2, [Pt^IV(5-Mephen)(SS-DACH)(NPX)(OH)]^2+]",44 ± 6,368 ± 9,160 ± 13,130 ± 7,720 ± 240,130 ± 27,620 ± 43,,,,,,,,,,
"COc1ccc2cc([C@H](C)C(=O)O)ccc2c1 [NPX, naproxen]",,499 ± 10,397 ± 13,304 ± 9,,,,83 ± 5,> 50000,> 50000,> 50000,,,,,,
"N.N.[Cl][Pt][Cl] [Cisplatin, cis-diamminedichloroplatinum(II)]",9 ± 2,256 ± 9,236 ± 13,199 ± 11,,,,,,,,,,,,,
"COc1ccc2cc([C@H](C)C(=O)[O][Pt+2]3([OH])[N]4C=CC=c5c(C)c(C)c6c(c54)[N]3C=CC=6)ccc2c1.N[C@H]1CCCC[C@@H]1N [Complex 3, [Pt^IV(5,6-Me2phen)(SS-DACH)(NPX)(OH)]^2+]",37 ± 4,351 ± 5,152 ± 8,104 ± 6,60 ± 22,10 ± 2,230 ± 18,,,,,,,,,,
"COc1ccc2c(c1)c(CC(=O)OCC(=O)[O][Pt-2]13([OH])([NH2+][C@H]4CCCC[C@@H]4[NH2+]1)[n+]1cccc4ccc5ccc[n+]3c5c41)c(C)n2C(=O)c1ccc(Cl)cc1 [Complex 4, [Pt^IV(phen)(SS-DACH)(ACE)(OH)]^2+]",48 ± 3,416 ± 8,343 ± 8,184 ± 5,840 ± 390,150 ± 40,1450 ± 104,,,,,19,,,,,
"COc1ccc2c(c1)c(CC(=O)OCC(=O)O)c(C)n2C(=O)c1ccc(Cl)cc1 [ACE, acemetacin]",76 ± 8,494 ± 6,371 ± 10,295 ± 13,,,,,> 50000,> 50000,> 50000,,,,,,
C1=C[N]2[Pt+2][N]3C=CC=c4ccc(c2c43)=C1.N[C@H]1CCCC[C@@H]1N [PHENSS],8 ± 4,289 ± 17,271 ± 15,237 ± 10,,,,,,,,,,,,,
"COc1ccc2c(c1)c(CC(=O)OCC(=O)[O][Pt-2]13([OH])([NH2+][C@H]4CCCC[C@@H]4[NH2+]1)[n+]1cccc4cc(C)c5ccc[n+]3c5c41)c(C)n2C(=O)c1ccc(Cl)cc1 [Complex 5, [Pt^IV(5-Mephen)(SS-DACH)(ACE)(OH)]^2+]",36 ± 2,412 ± 4,284 ± 12,140 ± 5,39 ± 18,1.3 ± 0.4,200 ± 21,,,,,,"11,540 fold",at least 920 fold,17,2230,
"COc1ccc2c(c1)c(CC(=O)OCC(=O)[O][Pt-2]13([OH])([NH2+][C@H]4CCCC[C@@H]4[NH2+]1)[n+]1cccc4c(C)c(C)c5ccc[n+]3c5c41)c(C)n2C(=O)c1ccc(Cl)cc1 [Complex 6, [Pt^IV(5,6-Me2phen)(SS-DACH)(ACE)(OH)]^2+]",32 ± 3,387 ± 7,284 ± 11,112 ± 8,12 ± 6,0.22 ± 0.1,130 ± 25,,,,,,,,,,~21
